Tests used:
PDE4B3 = biological target: T1, PDE4B3 (Mus musculus, UniProt Q8VBU5); assay: 5FOA growth assay in fission yeast strain expressing PDE4B3; assay type: cell-based, Murine; conditions: for Composite Z score, PDE4B3: high throughput 5FOA growth screen
T1 construct: targets used in the assays are full-length proteins (as opposed to simply the catalytic domain); expressed in transfected cells; host or cells: Schizosaccharomyces pombe, PDE gene integrated in place of cgs2
T1 sequence (Q8VBU5 1-721): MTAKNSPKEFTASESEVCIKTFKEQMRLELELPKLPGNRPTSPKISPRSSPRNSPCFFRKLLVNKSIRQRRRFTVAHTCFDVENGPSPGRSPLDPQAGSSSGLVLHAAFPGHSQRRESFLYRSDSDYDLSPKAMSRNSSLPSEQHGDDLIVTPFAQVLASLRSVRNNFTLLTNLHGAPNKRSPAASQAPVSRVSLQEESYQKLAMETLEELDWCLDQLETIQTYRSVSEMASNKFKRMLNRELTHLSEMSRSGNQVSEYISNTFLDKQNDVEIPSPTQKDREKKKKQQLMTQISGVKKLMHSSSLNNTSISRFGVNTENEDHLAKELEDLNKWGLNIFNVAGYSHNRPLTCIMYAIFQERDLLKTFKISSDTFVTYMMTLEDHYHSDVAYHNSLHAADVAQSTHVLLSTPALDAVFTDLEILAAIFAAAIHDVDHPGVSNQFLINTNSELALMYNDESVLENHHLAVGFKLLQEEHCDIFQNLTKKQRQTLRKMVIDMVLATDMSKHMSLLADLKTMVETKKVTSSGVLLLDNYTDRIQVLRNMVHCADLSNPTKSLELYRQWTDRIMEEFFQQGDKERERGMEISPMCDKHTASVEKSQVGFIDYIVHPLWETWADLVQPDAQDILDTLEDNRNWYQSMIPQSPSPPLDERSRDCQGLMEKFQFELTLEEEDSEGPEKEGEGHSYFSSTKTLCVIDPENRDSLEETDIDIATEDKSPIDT
Experimental: (§1) High throughput drug screens were carried out at the Broad Institute's Chemical Biology Program screening facility (Broad Institute, Cambridge, Mass.). Depending upon the strain, cultures were pregrown to exponential phase in EMM complete medium containing from 0.5 to 2.5 mM cAMP to repress fbp1-ura4 transcription. […] Starting cell concentrations ranged from 0.5×10^5 to 4×10^5 cells/ml depending on the screening strain. […] Other positive control dishes contained 5 mM cAMP in the 5FOA medium. Cultures were grown for 48 hours at 30° C., sealed in an airtight container with moist paper towels to prevent evaporation. Optical densities (OD600) of cultures were measured using a microplate reader. Bioinformatic analysis of the results to determine composite Z scores was performed as previously described^30, 31.
(§2) To determine whether the 5FOA growth phenotype could be exploited for high throughput drug screening, strains expressing PDE2A, PDE4A, PDE4B, or PDE8A were pre-grown in EMM medium containing cAMP and then transferred to 5FOA medium in 384 well microtiter plates in the presence or absence of cAMP. OD600 measurements were taken after 48 hours incubation at 30° C.
(§3) Cells were pregrown in EMM medium [MP Biomedicals (Solon, Ohio), 3% glucose, filter-sterilized to avoid carmelization, which would introduce variability into the optical density of the medium] containing from 0 mM to 2.5 mM cAMP (or either 0.5 mM or 1.0 mM cGMP). This was to repress expression of the fbp1-ura4 reporter prior to exposure of cells to 5FOA medium. Cells were grown at 30° C. to exponential phase (approximately 10^7 cells/ml). […] Starting cell concentrations ranged from 0.5×10^5 to 4×10^5 cells/ml depending on the screening strain. […] Other positive control dishes contained 5 mM cAMP in the 5FOA medium for PDEs that lack appropriate control compounds. Cultures were grown for 48 hours at 30° C., sealed in an airtight container with moist paper towels to prevent evaporation. Optical densities (OD600) of cultures were measured using a microplate reader. Bioinformatic analysis of the results to determine composite Z scores was performed as previously described (1, 3).

PDE4A1 = biological target: T2, PDE4A1 (Mus musculus, UniProt O89084); assay: 5FOA growth assay (high throughput screen, ED50) in fission yeast strain expressing PDE4A1; assay type: cell-based; conditions: high throughput 5FOA growth screen; greater than 8.53 = statistically-significant inhibitor
T2 construct: targets used in the assays are full-length proteins (as opposed to simply the catalytic domain); expressed in transfected cells; host or cells: Schizosaccharomyces pombe, PDE gene integrated in place of cgs2
T2 sequence (O89084 1-610 isoform O89084-2): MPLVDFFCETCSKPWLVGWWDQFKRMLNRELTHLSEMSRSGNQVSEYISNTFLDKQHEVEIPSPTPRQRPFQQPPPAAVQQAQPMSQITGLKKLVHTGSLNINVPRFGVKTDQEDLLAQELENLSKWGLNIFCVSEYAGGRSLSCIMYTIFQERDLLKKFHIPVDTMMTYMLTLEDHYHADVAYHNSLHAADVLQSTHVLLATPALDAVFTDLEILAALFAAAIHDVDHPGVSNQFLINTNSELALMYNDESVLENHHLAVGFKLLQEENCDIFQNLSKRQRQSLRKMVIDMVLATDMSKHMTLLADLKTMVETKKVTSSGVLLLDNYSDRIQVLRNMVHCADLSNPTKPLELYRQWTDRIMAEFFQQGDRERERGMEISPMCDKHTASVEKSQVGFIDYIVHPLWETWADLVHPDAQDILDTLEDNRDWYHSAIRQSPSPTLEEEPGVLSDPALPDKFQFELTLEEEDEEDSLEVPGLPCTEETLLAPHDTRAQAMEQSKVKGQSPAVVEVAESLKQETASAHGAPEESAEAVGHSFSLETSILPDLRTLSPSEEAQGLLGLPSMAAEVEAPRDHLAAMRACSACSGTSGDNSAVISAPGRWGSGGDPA
Experimental: as §1, §2, §3

SMILES | Composite Z score, PDE4B3 (PDE4B3) | Composite Z score, PDE4A1 (PDE4A1) | 1 Assay (20 uM) 4B3 (PDE4B3; 20 uM) [ND ND ND ND]
CCOC(=O)c1sc2ncnc(N3CCc4ccccc4C3)c2c1C [Compound 1379L18] | 1.8207 | −0.753 | –
Cc1c(C(=O)N2CCC3(CC2)OCCO3)sc2ncnc(N(C)c3ccccc3)c12 [1393 E07] | −1.206 | 3.1682 | –
CN(C)CCCNc1ncnc2sc3c(c12)CCCC3 [Compound 1414C02] | 21.25 | 1.6456 | –
CC1CCc2c(sc3nc(SCC(N)=O)nc(NCc4ccccc4)c23)C1 (centres unmarked) [Compound 1439G17] | 47.874 | 6.7542 | –
Cc1sc2ncnc(NCc3ccc4c(c3)OCO4)c2c1C [Compound 1426A15] | 0.9419 | 1.5745 | –
COc1ccc(CCNc2ncnc3sc(C)c(C)c23)cc1OC [Compound 1423F01] | 4.2065 | 0.9043 | –
Cc1nc(NCc2ccco2)c2c3c(sc2n1)CCC3 [Compound 1426I13] | −0.071 | −0.033 | –
CC(C)N(C)c1ncnc2sc3c(c12)CCC3 [Compound 1407G21] | 0.0445 | 12.819 | –
N#CC1(c2ccccc2)CCc2c(sc3ncnc(N4CCCC4)c23)C1 (centres unmarked) [Compound 1380I09] | −1.076 | 1.2506 | –
N#Cc1sc(C(N)=O)c(-c2ccco2)c1-c1ccco1 [1449, A02] | – | – | 1.8244
c1cn(CCCNc2ncnc3sc4c(c23)CCCC4)cn1 [1435 E20] | 0.5336 | 1.6661 | –
O=C(Nc1ncnc2sc3c(c12)CCCC3)C(F)(F)F [Compound 1406P09] | 0.5128 | 0.1456 | –
CCNc1nc(C)nc2sc3c(c12)CCCC3 [Compound 1410G03] | 2.8289 | 2.9506 | –
O=C(O)C(Cc1ccccc1)Nc1ncnc2sc3c(c12)CCC3 (centres unmarked) [Compound 1381O17] | 0.3352 | −0.467 | –
CC(C)C(Nc1ncnc2sc3c(c12)CCC3)C(=O)O (centres unmarked) [Compound 1381A19] | 0.2365 | 1.3339 | –
OCCN(CCO)c1ncnc2sc3c(c12)CCCC3 [1415 E01] | 0.8257 | 2.2076 | –
CCN(CC)c1ncnc2sc(C)c(C)c12 [Compound 1403J21] | 0.0332 | 1.647 | –
CCC(CO)Nc1nc(C)nc2sc3c(c12)CCCC3 (centres unmarked) [Compound 1426O11] | 0.0693 | 0.4682 | –

SMILES | Composite Z score, PDE4B3 (PDE4B3) | Composite Z score, PDE4A1 (PDE4A1) | 1 Assay (20 uM) 4B3 (PDE4B3; 20 uM) [ND ND ND ND]
Cc1sc2ncnc(NC3CCN(Cc4ccccc4)CC3)c2c1C [Compound 1426C09] | −0.516 | −0.147 | –
Cc1sc2ncnc(NCCc3ccc4c(c3)OCCO4)c2c1C [Compound 1426G17] | 25.393 | 10.127 | –
Cc1nc(N2CCOCC2)c2c(C)c(C(=O)Nc3cccc(Cl)c3C)sc2n1 [Compound 1424K08] | 21.717 | 3.4896 | –
COc1ccccc1C(=O)Nc1ncnc2sc3c(c12)CCCC3 [Compound 1415M01] | 1.1976 | 1.7784 | –
CC1CCc2c(sc3ncnc(NCCN4CCOCC4)c23)C1 (centres unmarked) [Compound 1425N16] | −1.074 | 0.4867 | –
CCN(CC)c1ncnc2sc3c(c12)CCC(C#N)(c1ccccc1)C3 (centres unmarked) [Compound 1380G04] | −0.752 | 20.429 | –
CCOC(=O)c1sc2nc(CC(=O)OC)nc(NCC(=O)OC)c2c1C [Compound 1379F18] | 3.0462 | −0.126 | –
c1nc(N2CCCCC2)c2c3c(sc2n1)CCC3 [Compound 1421A20] | 4.7765 | 4.6254 | –
CC(C)(C)C(=O)Nc1ncnc2sc3c(c12)CCCC3 [Compound 1379O22] | −0.703 | 1.5734 | –
Cc1nc(N2CC(C)OC(C)C2)c2c3c(sc2n1)CCC3 (centres unmarked) [Compound 1421B05] | 5.4669 | 2.1932 | –
C=CCNc1ncnc2sc3c(c12)CCCC3 [Compound 1435C20] | 31.009 | 8.4736 | –
CCN1CCN(c2nc(C)nc3sc4c(c23)CCC4)CC1 [Compound 1414C06] | 0.632 | 1.6242 | –
CCOC(=O)CSc1nc(NC)c2c3c(sc2n1)CCCC3 [Compound 1439B09] | 1.2391 | 0.5702 | –
Cc1nc(N2CCCN(C)CC2)c2c3c(sc2n1)CCC3 [Compound 1415C05] | 0.6059 | 0.327 | –
c1cncc(CNc2ncnc3sc4c(c23)CCCC4)c1 [Compound 1423I22] | 0.501 | 1.7161 | –
Cc1nc(N2CCC(C)CC2)c2c(C)c(C(=O)N3CCOCC3)sc2n1 [Compound 1424A12] | −2.898 | 2.2036 | –
O=C(Nc1ncnc2sc3c(c12)CCC3)c1ccccc1 [Compound 1380I07] | −0.935 | 36.663 | –
CCC(CO)Nc1nc(C)nc2sc3c(c12)CCC3 (centres unmarked) [Compound 1380M03] | −2.398 | −1.217 | –

Source: patent US20100227853A1, “INHIBITORS OF CYCLIC AMP PHOSPHODIESTERASES” (Trustees of Boston College, priority 2008, published 2010)
